Reference: US10150772B2, “Crystalline forms of PARP inhibitors” (priority 2014, dated 2018)
Like-named read-outs stand apart in the source and are kept apart here.

What was measured:
[1] = type: physicochemical; set-up: DSC: unit not given beside the values; conditions: 40° C. and 75% RH
Description: Identity, Assay, and Purity by HPLC
Testing was performed on a calibrated and validated Agilent 1200 Rapid Resolution High Performance Liquid Chromatography (HPLC) system designated LC-0430-AD or LC-418-1D. The system comprises a binary SL pump, degasser, high performance autosampler SL with a fraction collector, thermostated column compartment with a 2 valve column switcher, and a DAD SL detector. All standard solutions and samples were prepared in Class A glass volumetric flasks and were placed in autosampler vials. Standard weighings were done using a calibrated Mettler analytical balance. The sample preparations were centrifuged using an Eppendorf microcentrifuge. The primary chromatography data was acquired and integrated using Empower 2 software. Microsoft Office Excel 2003 was used for the calculation of results.
Solid State Stability of Salts at 40° C. and 75% Humidity:
Samples of the form to be studied (15-20 mg) were weighed into standard 1.5 mL HPLC vials (32×11.6 mm) and stored uncapped for 0, 7, 14 and 28 days in a 40° C. and 75% RH stability chamber. Samples were removed on the indicated day and capped. Measurements of XRPD, DSC, TGA and HPLC Identity by Purity and Assay measurements were completed on each time point sample.

[2] = Estimation of water solubility; type: physicochemical; conditions: visual inspection, 10 mg sample
Description: Estimation of Water Solubility: Ten mg portions of the salt forms to be studied were weighed into a standard 1.5 mL HPLC vial (32×11.6 mm). […] An estimation of solubility was based on the volume of water necessary to dissolve the known weight of sample.

COc1cccc2[nH]c3c4c(c5c(c3c12)C(=O)N(CN1CCN(C)CC1)C5=O)CCC4.O=C1CC[C@@H](C(=O)O)N1
COMPOUND A Assay ([1]; day 0): 65.5%
COMPOUND B Assay ([1]; day 0): 0.6%
DSC ([1]; day 0): 198.2
HPLC Purity ([1]; day 0): 98.6%
TGA ([1]; day 0): 0.49%
COMPOUND A Assay ([1]; day 7): 71.4%
COMPOUND B Assay ([1]; day 7): 0.6%
DSC ([1]; day 7): 199.0
HPLC Purity ([1]; day 7): 98.7%
TGA ([1]; day 7): 0.54%
XRPD ([1]; day 7): No change
COMPOUND A Assay ([1]; day 14): 60.2%
COMPOUND B Assay ([1]; day 14): 0.8%
DSC ([1]; day 14): 198.3
HPLC Purity ([1]; day 14): 98.2%
TGA ([1]; day 14): 0.64%
XRPD ([1]; day 14): No change
COMPOUND A Assay ([1]; day 28): 64.0%
COMPOUND B Assay ([1]; day 28): 1.2%
DSC ([1]; day 28): 198.4
HPLC Purity ([1]; day 28): 97.2%
XRPD ([1]; day 28): No change

COc1cccc2[nH]c3c4c(c5c(c3c12)C(=O)N(CN1CCN(C)CC1)C5=O)CCC4 [39-1(2)]
Estimated Water Solubility [2]: ~25 mg/mL

COc1cccc2[nH]c3c4c(c5c(c3c12)C(=O)N(CN1CCN(C)CC1)C5=O)CCC4 [39-2(2)]
Estimated Water Solubility [2]: >100 mg/mL

COc1cccc2[nH]c3c4c(c5c(c3c12)C(=O)N(CN1CCN(C)CC1)C5=O)CCC4 [39-3(2)]
Estimated Water Solubility [2]: >100 mg/mL

COc1cccc2[nH]c3c4c(c5c(c3c12)C(=O)N(CN1CCN(C)CC1)C5=O)CCC4 [39-5(2)]
Estimated Water Solubility [2]: >100 mg/mL

COc1cccc2[nH]c3c4c(c5c(c3c12)C(=O)N(CN1CCN(C)CC1)C5=O)CCC4 [Sample 13-3]
Estimated Water Solubility [2]: 50 to 100 mg/mL

COc1cccc2[nH]c3c4c(c5c(c3c12)C(=O)N(CN1CCN(C)CC1)C5=O)CCC4 [Sample 13-4]
Estimated Water Solubility [2]: <10 mg/mL

COc1cccc2[nH]c3c4c(c5c(c3c12)C(=O)N(CN1CCN(C)CC1)C5=O)CCC4 [Sample 13-5]
Estimated Water Solubility [2]: <10 mg/mL

COc1cccc2[nH]c3c4c(c5c(c3c12)C(=O)N(CN1CCN(C)CC1)C5=O)CCC4 [Sample 13-6]
Estimated Water Solubility [2]: >100 mg/mL

COc1cccc2[nH]c3c4c(c5c(c3c12)C(=O)N(CN1CCN(C)CC1)C5=O)CCC4 [Sample 13-7]
Estimated Water Solubility [2]: 50 to 100 mg/mL

COc1cccc2[nH]c3c4c(c5c(c3c12)C(=O)N(CN1CCN(C)CC1)C5=O)CCC4 [Sample 13-8]
Estimated Water Solubility [2]: >100 mg/mL

COc1cccc2[nH]c3c4c(c5c(c3c12)C(=O)N(CN1CCN(C)CC1)C5=O)CCC4 [Sample 13-9]
Estimated Water Solubility [2]: <10 mg/mL

COc1cccc2[nH]c3c4c(c5c(c3c12)C(=O)N(CN1CCN(C)CC1)C5=O)CCC4 [Sample 13-10]
Estimated Water Solubility [2]: 10 to 20 mg/mL

COc1cccc2[nH]c3c4c(c5c(c3c12)C(=O)N(CN1CCN(C)CC1)C5=O)CCC4 [Sample 30-1]
Estimated Water Solubility [2]: ~20 mg/mL

COc1cccc2[nH]c3c4c(c5c(c3c12)C(=O)N(CN1CCN(C)CC1)C5=O)CCC4 [Sample 30-2]
Estimated Water Solubility [2]: >100 mg/mL

COc1cccc2[nH]c3c4c(c5c(c3c12)C(=O)N(CN1CCN(C)CC1)C5=O)CCC4 [Sample 30-3]
Estimated Water Solubility [2]: >100 mg/mL

COc1cccc2[nH]c3c4c(c5c(c3c12)C(=O)N(CN1CCN(C)CC1)C5=O)CCC4 [Sample 30-4]
Estimated Water Solubility [2]: >100 mg/mL

COc1cccc2[nH]c3c4c(c5c(c3c12)C(=O)N(CN1CCN(C)CC1)C5=O)CCC4 [Sample 30-5]
Estimated Water Solubility [2]: ~25 mg/mL

COc1cccc2[nH]c3c4c(c5c(c3c12)C(=O)N(CN1CCN(C)CC1)C5=O)CCC4 [Sample 31-1]
Estimated Water Solubility [2]: ~25 mg/mL

COc1cccc2[nH]c3c4c(c5c(c3c12)C(=O)N(CN1CCN(C)CC1)C5=O)CCC4 [Sample 31-2]
Estimated Water Solubility [2]: >100 mg/mL

COc1cccc2[nH]c3c4c(c5c(c3c12)C(=O)N(CN1CCN(C)CC1)C5=O)CCC4 [Sample 31-3]
Estimated Water Solubility [2]: >100 mg/mL

COc1cccc2[nH]c3c4c(c5c(c3c12)C(=O)N(CN1CCN(C)CC1)C5=O)CCC4 [Sample 31-4]
Estimated Water Solubility [2]: >100 mg/mL

COc1cccc2[nH]c3c4c(c5c(c3c12)C(=O)N(CN1CCN(C)CC1)C5=O)CCC4 [Sample 31-5]
Estimated Water Solubility [2]: ~25 mg/mL
